Results as given in PMC6222871, “Suppression of Hepatitis C Virus Genome Replication and Particle Production by a Novel Diacylglycerol Acyltransferases Inhibitor” (Molecules : A Journal of Synthetic Chemistry and Natural …, 2018).
pEC50, pIC50: −log10 of the molar value. Where two headings read alike, the source gives them in different places.

Key:
[1] = system: HCV genotype 2a (Huh7.5-J6/JFH1); assay: microbe, parasite or virus in culture; conditions: for pEC50: Hepatitis C virus
Description: We previously synthesized and characterized twelve DGAT inhibitors with a different DGAT specificity. […] A922500, a commercially available DGAT-1-specific inhibitor was used as a positive control. In spite of a wealth of knowledge on an essential role of DGAT-1 in the HCV particle assembly and production, less attention has been paid to potential functions of DGATs in other steps of the viral life cycle. Therefore, we decided to examine effects of these twelve DGAT inhibitors on HCV particle production as well as RNA genome replication in parallel. For this purpose, we transfected Huh7.5 cells with in vitro-transcribed genotype 2a HCV RNAs (Huh7.5-J6/JFH1) and treated them with each DGAT inhibitor for 6 and 72 h at 10 μM. HCV genome replication as well as host GAPDH RNA levels was quantitated by a real-time RT-PCR analysis. For assessment of HCV particle production, we harvested and filtered the supernatant from Huh7.5-J6/JFH1 cells treated with DGAT inhibitors and incubated the supernatant with naïve huh7.5 cells for 72 h. Then, infectivity was measured by a real-time RT-PCR analysis.
Quantitative real-time RT-PCR analysis to measure levels of HCV RNA and GAPDH was conducted as previously described. The cDNA synthesis and reverse transcription of miR-122 were performed by using Taqman quantitative RT-PCR (qRT-PCR) analysis. Taqmanq RT-PCR components including TaqMan miR122 probe, endogenous control U6 probe, TaqMan® MicroRNA reverse transcription Kit and TaqMan® universal master mix II were purchased from Thermo Fisher Scientific (Waltham, MA, USA)
Huh7.5-J6/JFH-1 cells were seeded into 6-well plates at a density of 3 × 10^5 cells per well with DMEM containing 10% FBS. After 24 h, they are incubated with either DMSO, increasing concentrations of 10j for 3, 6, 12, 24, 48, and 72 h, or increasing concentrations of A922500 for 6, 12, 24, 48, and 72 h. Total RNAs were extracted from treated cells and virus-containing media were harvested at each time point. Naïve Huh7.5 cells were infected with these virus-containing media after concentration with centricons. Total RNAs were extracted from Huh7.5 cells infected with virus-containing media. qRT-PCR analysis was performed to measure effect of 10j on HCV replication and virus particle production.

[2] = system: recombinant DGAT-1; design: method as in PMID 23242135; conditions: recombinant DGAT-1, [14C] oleoyl-CoA as acyl-donor; cited from earlier work
[3] = system: HepG2 cells; design: method as in PMID 23242135; conditions: [14C] glycerol as substrate; cited from earlier work
[4] = design: method as in PMID 23141914; conditions: cited from earlier work
[5] = molecular target: T1, DGAT-1 (Homo sapiens, UniProt O75907); assay: DGAT-1 in vitro assay, membrane fractions of DGAT-1-transfected 293T cells, NBD-palmitoyl CoA, TLC; type: biochemical
T1 construct: expressed in transfected cells; host or cells: 293T cells (membrane fraction)
T1 sequence (O75907 1-488): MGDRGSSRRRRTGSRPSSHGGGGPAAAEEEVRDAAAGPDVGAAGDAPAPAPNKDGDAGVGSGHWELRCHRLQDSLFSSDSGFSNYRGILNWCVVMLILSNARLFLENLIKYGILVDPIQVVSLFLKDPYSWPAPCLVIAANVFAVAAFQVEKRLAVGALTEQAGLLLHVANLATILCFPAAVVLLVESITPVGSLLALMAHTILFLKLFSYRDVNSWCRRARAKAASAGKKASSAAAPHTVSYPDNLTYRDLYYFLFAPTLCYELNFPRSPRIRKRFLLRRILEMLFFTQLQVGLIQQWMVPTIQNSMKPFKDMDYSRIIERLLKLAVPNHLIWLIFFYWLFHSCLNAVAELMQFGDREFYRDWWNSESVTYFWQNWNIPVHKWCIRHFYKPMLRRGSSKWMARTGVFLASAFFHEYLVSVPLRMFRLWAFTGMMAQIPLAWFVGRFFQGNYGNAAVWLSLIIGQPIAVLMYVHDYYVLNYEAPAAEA
Experimental: pcDNA3.1-DGAT1 plasmid was transfected into 293T cells by using a lipofectamine 2000 transfection reagent (Invitrogen) as described by the manufacturer. At 24 h after transfection, transfected cells were harvested and cells were resuspended with 500 μL of 50 mM Tris-HCL/250 mM sucrose. Resuspended cells were disrupted by 15 passages through a 27-gauge needle and centrifugation at 600× g for 5 min. The supernatant was ultracentrifuged at […] for 30 min and the supernatant was discarded. The pellets were resuspended in a total of 500 μL of 50 mM ice-cold Tris-HCl/250 mM sucrose. Then, a master mix containing 20 μL of 1 M-Tris-HCl, 4 μL of 1 M MgCl2, 10 μL of 4 mM DOG in acetone, 10 μL of 12 mg/mL BSA and 10 μL of 500 μM NBD-palmitoyl CoA in 20 mM Tris was prepared and incubated at 37 °C for 2 min. Also, 50 μg total membrane proteins were incubated with 10j and A922500 at 37 °C for 1 h. Extracted proteins were added into master mix and incubated at 37 °C for 10 min. The reaction was terminated by adding 4 mL CHCl3/methanol (2:1, v/v). Samples were mixed by vortexing and 800 μL of water was added and remixed. Samples were allowed to sit at room temperature for 1 h. […] Plate was allowed to air dry for 1 h before quantification of reaction products. The synthesized TG was determined by the ChemiDoc imaging system (Bio-Rad, Hércules, CA, USA).

[6] = system: HNF4α; assay: HNF4α western blot in Huh7.5-J6/JFH1 cells; type: cell-based; conditions: up to 10 μM, 72 h
Description: Since DGATs play an important role in maintaining liver-likeness in hepatocytes, the antiviral effect of 10j might be due to mere loss of this liver-specific character. […] In addition, HNF4α was also reported to be reduced in DGAT1-silenced cell lines. Therefore, we wished to test effects of 10j on HNF4α.

Q: For O=C(NCc1ccco1)c1ccc2[nH]c(COc3ccc(C45CC6CC(CC(C6)C4)C5)cc3)nc2c1 [10j, 2-{[4-(adamant-1yl)phenoxy]methyl)-N-(furan-2-ylmethyl)-1H-benzo[d]imidazole-5-carboxamide], which “T1/2, time required for reducing the viral RNAs by half” value ([1]; 8 μM, genotype 2a) is on record?
A: 35.8 h

Q: And the “effect on HCV genome replication” value ([1]; 10 μM, 72 h (Figure 1C))?
A: able to block both viral RNA genome replication and particle production

Q: What about the pEC50 ([1]; 3 h, read-out: EC50 on HCV genome replication) of the same compound?
A: < 5.00

Q: And the pEC50 ([1]; 6 h, read-out: EC50 on HCV genome replication)?
A: < 5.00

Q: And the pEC50 ([1]; 12 h, read-out: EC50 on HCV genome replication)?
A: 5.07

Q: And the pEC50 ([1]; 24 h, read-out: EC50 on HCV genome replication)?
A: 5.52

Q: What about the pEC50 ([1]; 48 h, read-out: EC50 on HCV genome replication) of the same compound?
A: 5.44

Q: What about the pEC50 ([1]; 72 h, read-out: EC50 on HCV genome replication) of the same compound?
A: 5.57

Q: And the pEC50 ([1]; GETYPE2A, 72 h, read-out: EC50 HCV RNA, reporter-free infectious clone)?
A: 5.80

Q: What about the pEC50 ([1]; GETYPE2A, read-out: EC50 values required for inhibition of the HCV genome replication (summary)) of the same compound?
A: 5.70 to 6.00

Q: What about the pIC50 [2] of the same compound?
A: 5.05

Q: What about the “TG % (10 μM in HepG2), relative [14C] triglyceride percentage” value [3] of the same compound?
A: 45.0%

Q: What about the fat tissues ([4]; mice fed with high-fat diet, versus control mice) of the same compound?
A: significant decrease

Q: What about the high-density lipoprotein-cholesterol ([4]; mice) of the same compound?
A: significant increase

Q: What about the “total TG, total cholesterol and low-density lipoprotein cholesterol in the blood” value ([4]; mice) of the same compound?
A: decreased levels

Q: And the pIC50 ([5]; DGAT-1 membrane fractions from 293T cells, read-out: IC50, in vitro synthesis of TG by DGAT-1)?
A: 4.76

Q: What about the pIC50 ([5]; Table 2 and Figure 6E, read-out: IC50 required for inhibition of the enzymatic DGAT activities in vitro (summary)) of the same compound?
A: < 5.30

Q: And the “expression levels of HNF4α” value [6]?
A: remained unaltered
